{
  "source": "the supplement of paper PMC10307832",
  "experiment_in_all_cases": "relative viability (nuclei count vs DMSO), 5 days (fraction); higher = more cells survive",
  "key": {"[1]": {"test_system": "NCI-H1623", "outline": "(§1)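 Relative viability was taken as the ratio of nuclei in treated wells to nuclei in vehicle wells. Lung cancer cell lines in 1536-well plates received compounds by pin tool one day after seeding, either one drug alone or a fixed anchor-drug dose plus five library-drug doses (not always all listed) in √10 steps. Nuclei were counted on 4× images after 5 days of treatment, and values are medians of duplicate plates.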"}, "[2]": {"test_system": "NCI-H1734", "outline": "as §1"}, "[3]": {"test_system": "PC-3 [JPC-3]", "outline": "as §1"}, "[4]": {"test_system": "HCC-78", "outline": "as §1"}, "[5]": {"test_system": "LK-2", "outline": "as §1"}, "[6]": {"test_system": "ChaGo-K-1", "outline": "as §1"}, "[7]": {"test_system": "NCI-H2405", "outline": "as §1"}, "[8]": {"test_system": "NCI-H727", "outline": "as §1"}, "[9]": {"test_system": "NCI-H460", "outline": "as §1"}, "[10]": {"test_system": "NCI-H1355", "outline": "as §1"}, "[11]": {"test_system": "NCI-H1975", "outline": "as §1"}, "[12]": {"test_system": "NCI-H2342", "outline": "as §1"}, "[13]": {"test_system": "LCLC-97TM1", "outline": "as §1"}, "[14]": {"test_system": "NCI-H1648", "outline": "as §1"}, "[15]": {"test_system": "HOP-62", "outline": "as §1"}, "[16]": {"test_system": "NCI-H2228", "outline": "as §1"}, "[17]": {"test_system": "NCI-H596", "outline": "as §1"}, "[18]": {"test_system": "NCI-H358", "outline": "as §1"}, "[19]": {"test_system": "NCI-H1755", "outline": "as §1"}, "[20]": {"test_system": "NCI-H1944", "outline": "as §1"}, "[21]": {"test_system": "NCI-H23", "outline": "as §1"}, "[22]": {"test_system": "NCI-H1993", "outline": "as §1"}, "[23]": {"test_system": "NCI-H1650", "outline": "as §1"}, "[24]": {"test_system": "NCI-H2126", "outline": "as §1"}},
  "data": [
    {"smiles": "Nc1cccc2c1CN(C1CCC(=O)NC1=O)C2=O", "note": "(stereo not drawn) [Lenalidomide] + COc1cccc2cc(-c3nc([C@H]4CC[C@H](C(=O)O)CC4)n4ncnc(N)c34)[nH]c12 [OSI-027] (partner 0.5 µM)", "values": [
      {"measurement": "relative viability", "setting": "[1]; first compound 0.253 µM", "value": 0.433},
      {"measurement": "relative viability", "setting": "[1]; first compound 0.8 µM", "value": 0.418},
      {"measurement": "relative viability", "setting": "[1]; first compound 2.53 µM", "value": 0.375},
      {"measurement": "relative viability", "setting": "[1]; first compound 8 µM", "value": 0.392},
      {"measurement": "relative viability", "setting": "[2]; first compound 0.253 µM", "value": 0.63},
      {"measurement": "relative viability", "setting": "[2]; first compound 0.8 µM", "value": 0.712},
      {"measurement": "relative viability", "setting": "[2]; first compound 2.53 µM", "value": 0.566},
      {"measurement": "relative viability", "setting": "[2]; first compound 8 µM", "value": 0.608},
      {"measurement": "relative viability", "setting": "[3]; first compound 0.253 µM", "value": 0.832},
      {"measurement": "relative viability", "setting": "[3]; first compound 0.8 µM", "value": 0.569},
      {"measurement": "relative viability", "setting": "[3]; first compound 2.53 µM", "value": 0.769},
      {"measurement": "relative viability", "setting": "[3]; first compound 8 µM", "value": 0.818},
      {"measurement": "relative viability", "setting": "[4]; first compound 0.253 µM", "value": 0.418},
      {"measurement": "relative viability", "setting": "[4]; first compound 0.8 µM", "value": 0.35},
      {"measurement": "relative viability", "setting": "[4]; first compound 2.53 µM", "value": 0.376},
      {"measurement": "relative viability", "setting": "[4]; first compound 8 µM", "value": 0.382},
      {"measurement": "relative viability", "setting": "[5]; first compound 0.253 µM", "value": 0.215},
      {"measurement": "relative viability", "setting": "[5]; first compound 0.8 µM", "value": 0.19},
      {"measurement": "relative viability", "setting": "[5]; first compound 2.53 µM", "value": 0.191},
      {"measurement": "relative viability", "setting": "[5]; first compound 8 µM", "value": 0.182},
      {"measurement": "relative viability", "setting": "[6]; first compound 0.253 µM", "value": 0.586},
      {"measurement": "relative viability", "setting": "[6]; first compound 0.8 µM", "value": 0.441},
      {"measurement": "relative viability", "setting": "[6]; first compound 2.53 µM", "value": 0.656},
      {"measurement": "relative viability", "setting": "[6]; first compound 8 µM", "value": 0.548},
      {"measurement": "relative viability", "setting": "[7]; first compound 0.253 µM", "value": 0.586},
      {"measurement": "relative viability", "setting": "[7]; first compound 0.8 µM", "value": 0.706},
      {"measurement": "relative viability", "setting": "[7]; first compound 2.53 µM", "value": 0.588},
      {"measurement": "relative viability", "setting": "[7]; first compound 8 µM", "value": 0.596},
      {"measurement": "relative viability", "setting": "[8]; first compound 0.253 µM", "value": 0.523},
      {"measurement": "relative viability", "setting": "[8]; first compound 0.8 µM", "value": 0.446},
      {"measurement": "relative viability", "setting": "[8]; first compound 2.53 µM", "value": 0.609},
      {"measurement": "relative viability", "setting": "[8]; first compound 8 µM", "value": 0.562},
      {"measurement": "relative viability", "setting": "[9]; first compound 0.253 µM", "value": 0.643},
      {"measurement": "relative viability", "setting": "[9]; first compound 0.8 µM", "value": 0.679},
      {"measurement": "relative viability", "setting": "[9]; first compound 2.53 µM", "value": 1.01},
      {"measurement": "relative viability", "setting": "[9]; first compound 8 µM", "value": 0.709},
      {"measurement": "relative viability", "setting": "[10]; first compound 0.253 µM", "value": 0.449},
      {"measurement": "relative viability", "setting": "[10]; first compound 2.53 µM", "value": 0.436},
      {"measurement": "relative viability", "setting": "[10]; first compound 8 µM", "value": 0.362},
      {"measurement": "relative viability", "setting": "[11]; first compound 0.253 µM", "value": 0.817},
      {"measurement": "relative viability", "setting": "[11]; first compound 0.8 µM", "value": 0.661},
      {"measurement": "relative viability", "setting": "[11]; first compound 2.53 µM", "value": 0.79},
      {"measurement": "relative viability", "setting": "[11]; first compound 8 µM", "value": 0.595},
      {"measurement": "relative viability", "setting": "[12]; first compound 0.253 µM", "value": 0.67},
      {"measurement": "relative viability", "setting": "[12]; first compound 0.8 µM", "value": 0.572},
      {"measurement": "relative viability", "setting": "[12]; first compound 2.53 µM", "value": 0.57},
      {"measurement": "relative viability", "setting": "[12]; first compound 8 µM", "value": 0.626},
      {"measurement": "relative viability", "setting": "[13]; first compound 0.253 µM", "value": 0.544},
      {"measurement": "relative viability", "setting": "[13]; first compound 0.8 µM", "value": 0.454},
      {"measurement": "relative viability", "setting": "[13]; first compound 2.53 µM", "value": 0.661},
      {"measurement": "relative viability", "setting": "[13]; first compound 8 µM", "value": 0.563},
      {"measurement": "relative viability", "setting": "[14]; first compound 0.253 µM", "value": 0.272},
      {"measurement": "relative viability", "setting": "[14]; first compound 0.8 µM", "value": 0.22},
      {"measurement": "relative viability", "setting": "[14]; first compound 2.53 µM", "value": 0.253},
      {"measurement": "relative viability", "setting": "[14]; first compound 8 µM", "value": 0.227},
      {"measurement": "relative viability", "setting": "[15]; first compound 0.253 µM", "value": 0.685},
      {"measurement": "relative viability", "setting": "[15]; first compound 0.8 µM", "value": 0.802},
      {"measurement": "relative viability", "setting": "[15]; first compound 2.53 µM", "value": 0.998},
      {"measurement": "relative viability", "setting": "[15]; first compound 8 µM", "value": 0.789},
      {"measurement": "relative viability", "setting": "[16]; first compound 0.253 µM", "value": 0.568},
      {"measurement": "relative viability", "setting": "[16]; first compound 0.8 µM", "value": 0.641},
      {"measurement": "relative viability", "setting": "[16]; first compound 2.53 µM", "value": 0.672},
      {"measurement": "relative viability", "setting": "[16]; first compound 8 µM", "value": 0.473},
      {"measurement": "relative viability", "setting": "[17]; first compound 0.253 µM", "value": 0.784},
      {"measurement": "relative viability", "setting": "[17]; first compound 2.53 µM", "value": 0.764},
      {"measurement": "relative viability", "setting": "[17]; first compound 8 µM", "value": 0.532},
      {"measurement": "relative viability", "setting": "[18]; first compound 0.253 µM", "value": 0.717},
      {"measurement": "relative viability", "setting": "[18]; first compound 0.8 µM", "value": 0.815},
      {"measurement": "relative viability", "setting": "[18]; first compound 2.53 µM", "value": 0.925},
      {"measurement": "relative viability", "setting": "[18]; first compound 8 µM", "value": 0.855},
      {"measurement": "relative viability", "setting": "[19]; first compound 0.253 µM", "value": 0.757},
      {"measurement": "relative viability", "setting": "[19]; first compound 0.8 µM", "value": 0.72},
      {"measurement": "relative viability", "setting": "[19]; first compound 2.53 µM", "value": 0.79},
      {"measurement": "relative viability", "setting": "[19]; first compound 8 µM", "value": 0.67},
      {"measurement": "relative viability", "setting": "[20]; first compound 0.253 µM", "value": 0.412},
      {"measurement": "relative viability", "setting": "[20]; first compound 0.8 µM", "value": 0.372},
      {"measurement": "relative viability", "setting": "[20]; first compound 2.53 µM", "value": 0.491},
      {"measurement": "relative viability", "setting": "[20]; first compound 8 µM", "value": 0.36},
      {"measurement": "relative viability", "setting": "[21]; first compound 0.253 µM", "value": 0.581},
      {"measurement": "relative viability", "setting": "[21]; first compound 0.8 µM", "value": 0.499},
      {"measurement": "relative viability", "setting": "[21]; first compound 2.53 µM", "value": 0.742},
      {"measurement": "relative viability", "setting": "[21]; first compound 8 µM", "value": 0.502},
      {"measurement": "relative viability", "setting": "[22]; first compound 0.253 µM", "value": 0.401},
      {"measurement": "relative viability", "setting": "[22]; first compound 0.8 µM", "value": 0.572},
      {"measurement": "relative viability", "setting": "[22]; first compound 2.53 µM", "value": 0.593},
      {"measurement": "relative viability", "setting": "[22]; first compound 8 µM", "value": 0.607},
      {"measurement": "relative viability", "setting": "[23]; first compound 0.8 µM", "value": 0.546},
      {"measurement": "relative viability", "setting": "[23]; first compound 2.53 µM", "value": 0.722},
      {"measurement": "relative viability", "setting": "[23]; first compound 8 µM", "value": 0.656},
      {"measurement": "relative viability", "setting": "[24]; first compound 0.253 µM", "value": 0.66},
      {"measurement": "relative viability", "setting": "[24]; first compound 0.8 µM", "value": 0.609},
      {"measurement": "relative viability", "setting": "[24]; first compound 2.53 µM", "value": 0.663},
      {"measurement": "relative viability", "setting": "[24]; first compound 8 µM", "value": 0.593}
    ]}
  ]
}
